The values that follow come from patent US20020058244A1, “Method for detecting uracil biosynthesis inhibitors and their use as herbicides” (priority 2000, published 2002).

The subject of one series is OPRTase/ODCase. Briefly: In vitro enzymatic conversion of [14C]-orotate to UMP, cell free extract from corn root tissue. Particulars: cell free extract. The format is biochemical. On the procedure:
(§1) Etiolated corn roots and shoots or soybean suspension cells were used as tissue. Corn seedlings were germinated on vermiculite for 4 days in the dark at 26_C. and roots and shoots harvested separately. The soybean cells were grown in media consisting of Muashige and Skoog salts (Physiol. Plant (1962) 15:473-497) purchased from Gibco/BRL, vitamins (glycine 2 mg/L, thiamine 0.1 mg/L, nicotinic acid 0.5 mg/L, pyridoxine-HCl 0.5 mg/L), myo-inositol (100 mg/L), 2,4-D ([…]), and 30 g/L sucrose. Cell cultures are grown at 25° C. with gentle shaking. Cultures were transfered every 7 days to new growth media.
(§2) Approximately 5-10 g plant tissue were ground in liquid nitrogen and resuspended in 1:2 (w/v) homogenization buffer (30 mM KPO4^−; 25 mM […], 5 mM MgCl2, 5 mM ascorbic acid, pH 7.2). The homogenate was centrifuged at 10,000 g for 20 min, and the supernatant desalted using BioRad columns. The desalted supernatant was used for OPRTase/ODCase enzyme assays. For DHOD enzyme extraction, the supernatant was further centrifuged at 100,000 g for 45 min to obtain a microsomal pellet. The microsomal pellet was resuspended in 3-4 ml resuspension buffer (70 mM Tris-base, pH 7.4) containing 1% Triton X-100.
All enzyme assays were performed according to Rawls, J. M. (1978) Anal. Biochem. 86 (1): 107-117 and Cleaveland et al. (1995). Biochem. Pharm. 49(7):947-954. Enzyme assays were performed in a total volume of 200 ul with 1 uM [^14C]carbamoyl aspartate, [^14C]dihydroorotate or [^14C]orotate as substrates, and 1-5 mM probe compound or barbiturate as inhibitors. The [^14C]carbamoyl aspartate and [^14C]dihydroorotate assay was performed using a potassium phosphate buffer, pH 7.4 with 12 mM NAD^+, and 10 mM MgCl2. […] Over time, 25 ul aliquots were taken from the reaction tube and boiled for 5 min to stop the reaction. Samples were spotted onto cellulose TLC plates and run using 0.1 M potassium phosphate buffer, 100% ammonium sulfate, and 1-propanol (10:6:1). Plates were developed using a TLC plate radioisotope detector. Orotate and UMP standards were run next to unknowns to identify the conversion of [^14C]orotate to [^14C]UMP in the enzyme assay.

Another series has as its system DHOD. Briefly: In vitro conversion of [14C]dihydroorotate to orotate, corn root microsomal preparation. It counts as biochemical. On the procedure:
as §1, §2
(§3) All enzyme assays were performed according to Rawls, J. M. (1978) Anal. Biochem. 86 (1): 107-117 and Cleaveland et al. (1995). Biochem. Pharm. 49(7):947-954. Enzyme assays were performed in a total volume of 200 ul with 1 uM [^14C]carbamoyl aspartate, [^14C]dihydroorotate or [^14C]orotate as substrates, and 1-5 mM probe compound or barbiturate as inhibitors. The [^14C]carbamoyl aspartate and [^14C]dihydroorotate assay was performed using a potassium phosphate buffer, pH 7.4 with 12 mM NAD^+, and 10 mM MgCl2. The [^14C]orotate enzyme assay was performed using Tris buffer, pH 8.8 with 12 mM PRPP and 10 mM MgCl2. Over time, 25 ul aliquots were taken from the reaction tube and boiled for 5 min to stop the reaction. Samples were spotted onto cellulose TLC plates and run using 0.1 M potassium phosphate buffer, 100% ammonium sulfate, and 1-propanol (10:6:1). Plates were developed using a TLC plate radioisotope detector. Orotate and UMP standards were run next to unknowns to identify the conversion of [^14C]orotate to [^14C]UMP in the enzyme assay.

The test system of another series is DHO. Briefly: In vitro conversion of [14C]dihydroorotate to carbamoyl aspartate, corn root microsomal preparation. The format is biochemical. The procedure:
as §1, §2, §3

Series [1] can be described thus: Stability in aqueous solution by mass spectroscopy and NMR. The format is physicochemical. On the procedure: The stability analysis of the compound “B”, compound “C”, compound “G”, and compound “E” compounds was performed using a Hewlett Packard HP1100 LC system coupled to a Micromass Platfom-LC mass spectrometer operating with an electrospray ionization source. In positive ion electrospray, AC12254 82A produced molecules at m/z 112(M^+), m/z 153 (M+41) at a cone voltage of 30V. Retention time of AC 12254 82A was 12.54 min with absorption maxima of 248 and 314 nm.
Column: Hypersil Spherisorb Waters ODS(2), 3.6×150 mm
Eluent: 60% acetonitrile, 40% water (0.1% formic acid)
Photodiode Array Detection: Scan Range: 190-600 nm
1H NMR was taken in DMSO-d6 on a 500 MHZ Bruker NMR Spectrometer. […] Each had 5 protons as follows: NH, 2OH and 2 CH.

The next series relates to Arabidopsis. Briefly: Arabidopsis 96 well microtiter plate injury and reversal test. It counts as in vivo. Particulars: reversal assay, see Table III. On the procedure:
The compounds were tested in a 96 microtiter well plate containing various concentrations of probe compound with or without intermediates of the pyrimidine and purine biosynthesis pathways to detect reversal of injury. Plates were filled with 0.7% agar medium, seeded with Arabidopsis, and placed in a growth chamber for several days to allow for seed germination and plant growth. Arabidopsis plates were rated on a scale from 0 to 9 where 0 represents no injury, and 9 represents no germination. In addition, injury symptoms observed were recorded.

The target in another series is T1, ODCase (Rattus norvegicus, UniProt A0ACM8Q7Z8).
T1 construct: host or cells: rat brain tissue
T1 sequence (A0ACM8Q7Z8 entry or part of it): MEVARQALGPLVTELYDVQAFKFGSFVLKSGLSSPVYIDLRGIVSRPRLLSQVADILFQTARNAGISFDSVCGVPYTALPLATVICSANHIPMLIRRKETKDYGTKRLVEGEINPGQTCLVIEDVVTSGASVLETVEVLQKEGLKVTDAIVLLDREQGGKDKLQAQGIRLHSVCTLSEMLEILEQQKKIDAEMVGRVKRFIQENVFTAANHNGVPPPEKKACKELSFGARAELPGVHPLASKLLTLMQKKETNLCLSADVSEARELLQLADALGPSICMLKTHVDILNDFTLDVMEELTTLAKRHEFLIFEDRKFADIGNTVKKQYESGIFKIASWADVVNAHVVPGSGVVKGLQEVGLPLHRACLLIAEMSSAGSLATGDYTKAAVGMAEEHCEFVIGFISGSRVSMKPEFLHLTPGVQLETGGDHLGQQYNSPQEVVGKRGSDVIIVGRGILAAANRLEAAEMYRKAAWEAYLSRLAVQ
Particulars: rat brain tissue; cited from earlier work.

The structures appear in SMILES notation. Entries after “also recorded” stand apart in the source; their conditions may differ.

Regarding `O=c1cnn([C@@H]2O[C@H](CO)[C@@H](O)[C@H]2O)c(=O)[nH]1` [Compound 6-Azauridine, 6-Azauridine, reference compound], in the series on OPRTase/ODCase, the “effect on OPRTase/ODCase activity (conversion of [14C]-orotate to UMP)” value is reported as “not shown to inhibit”.

Turning to `O=c1[nH][nH]cc1C=NO` [D, 2,3-dihydro-3-oxo-1H-pyrazole-4-carboxaldehyde-4-oxime], the “effect on DHOD activity (dihydroorotate converted to orotate) versus untreated control” value in the series with DHOD is “no difference”. Besides, the “effect on DHO activity (dihydroorotate converted to carbamoyl aspartate) versus untreated control” value in the series with DHO is recorded as “no difference”.

Consider `CN(C)C=C1C=NNC1=O` [E, 4-[(dimethylamino)methylene]-2,4-dihydro-3H-pyrazol-3-one], for which the “stability in aqueous solution” value in series [1] is “stable in aqueous solution with no hydrolysis detected; also recorded: stable”. In addition, the “uracil biosynthesis inhibitory activity” value in the series on Arabidopsis was “significant”.

Turning to `CN1N=CC(=CNc2ccc(F)cc2F)C1=O` [G, 4-[[(2,4-difluorophenyl)amino]methylene]-2,4-dihydro-2-methyl-3H-pyrazol-3-one], in series [1], the “stability in aqueous solution” value is listed as “relatively stable”. In series [1] (aqueous solution), the half-life (as a rule, how long it takes for the measured level to halve) is more than 1440 min. In addition, the “uracil biosynthesis inhibitory activity” value in the series with Arabidopsis is “only marginal”.

With `O=C(O)C1C=NNC1=O` (centres unmarked) [J, 4,5-dihydro-5-oxo-1H-pyrazole-4-carboxylic acid; or 2,3-dihydro-3-oxo-1H-pyrazole-4-carboxylic acid], the “effect on DHOD activity (dihydroorotate converted to orotate) versus untreated control” value with DHOD is “no difference”. In the series with DHO, the “effect on DHO activity (dihydroorotate converted to carbamoyl aspartate) versus untreated control” value is “no difference”.

Take `O=C1CC(=O)N([C@@H]2O[C@H](COP(=O)(O)O)[C@@H](O)[C@H]2O)C(=O)N1` [ribotide of barbiturate]: the Ki (in general, a dissociation constant, usually derived from enzyme kinetics or from competition with a known ligand) at ODCase was 4.1 nM.
